Earlier results as cited in PMC8035703, “Effect of Synchronous Versus Sequential Regimens on the Pharmacokinetics and Biodistribution of Regorafenib with Irradiation” (Pharmaceutics, 2021).

Parameters: method as in PMID 26867886, PMID 28202227, PMID 24971021
Conditions: HCC patients who received RT concurrently or sequentially with sorafenib; cited from earlier work

For `CNC(=O)c1cc(Oc2ccc(NC(=O)Nc3ccc(Cl)c(C(F)(F)F)c3)cc2)ccn1` [sorafenib], the “Incidence of adverse effects” value is given as > 30%.
